Patent publication US20220202845A1, “METHODS AND COMPOSITIONS FOR TREATING CANCER” (Fred Hutchinson Cancer Research Center, priority 2018, published 2022)

How the values were obtained:
DUX4 mRNA [1] = test: DUX4 mRNA levels by RT-qPCR in KLE endometrial adenocarcinoma cells; assay type: cell-based, human; settings: varying concentrations, 20 hours, vs DMSO vehicle set to one
Procedure: (§1) FIG. 13A-C. CDK7 inhibitor THZ1 reduces DUX4 expression in FSHD cells and cancer cells. (A) Differentiating MB200 FSHD2 patient-derived muscle cells, (B) SuSa testicular teratocarcinoma cells, or (C) KLE endometrial adenocarcinoma cells were treated with vehicle (−, DMSO) or varying concentrations of THZ1, as indicated, for 24 hours (A) or 20 hours (B-C) and cultures analyzed for DUX4 mRNA levels by RT-qPCR. […] Data are represented as relative expression (means, with error bars indicating standard deviation across three biological replicates) with expression in the absence of inhibitor set to one. FSHD muscle cells utilize DUX4 exon 3, while SuSa cells and KLE cells use DUX4 exon 3b.
(§2) Total RNA was extracted from whole cells using the NucleoSpin RNA kit (Machery-Nagel) according to the manufacturer's instructions. Isolated RNA was treated with DNase I (Thermo Fisher Scientific), heat inactivated, and reverse transcribed into cDNA using SuperScript III (Thermo Fisher Scientific) and oligo(dT) primers (Invitrogen) following the manufacturer's protocol. Quantitative PCR was carried out on a QuantStudio 7 Flex (Applied Biosystems) using primers specific for each mRNA and iTaq SYBR Green Supermix (Bio-Rad Laboratories, Inc.). […]
(§3) Next, the cells were analyzed for DUX4 mRNA levels by RT-qPCR.

DUX4 mRNA [2] = test: DUX4 mRNA levels by RT-qPCR in SuSa testicular teratocarcinoma cells; assay type: cell-based, human; settings: varying concentrations, 20 hours, vs DMSO vehicle set to one
Procedure: as §1, §2, §3

DUX4 mRNA [3] = test: DUX4 mRNA levels by RT-qPCR in differentiating MB200 FSHD2 patient-derived muscle cells; assay type: cell-based, human; settings: varying concentrations, 24 hours, vs DMSO vehicle set to one
Procedure: as §1, §2, §3

p38α = p38α (Homo sapiens, UniProt Q16539); settings: fold selective over p38β; cited from earlier work
Sequence of p38α (Q16539 whole entry): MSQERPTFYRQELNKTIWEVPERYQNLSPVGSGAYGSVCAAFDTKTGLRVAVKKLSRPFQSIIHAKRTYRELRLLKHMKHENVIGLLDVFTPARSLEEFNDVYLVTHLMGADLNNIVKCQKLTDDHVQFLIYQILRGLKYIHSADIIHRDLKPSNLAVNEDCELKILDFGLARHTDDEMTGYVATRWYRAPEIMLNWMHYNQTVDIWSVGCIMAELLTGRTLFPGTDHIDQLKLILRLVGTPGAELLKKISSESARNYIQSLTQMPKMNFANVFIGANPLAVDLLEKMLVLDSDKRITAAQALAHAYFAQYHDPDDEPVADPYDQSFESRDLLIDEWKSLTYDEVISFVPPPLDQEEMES

Row | SMILES | DUX4 mRNA levels (relative expression) (DUX4 mRNA [1]) | DUX4 mRNA levels (relative expression) (DUX4 mRNA [2]) | DUX4 mRNA levels (relative expression) (DUX4 mRNA [3]) | Selectivity for p38α over p38β (p38α)
1 | CN(C)C/C=C/C(=O)Nc1ccc(C(=O)Nc2cccc(Nc3ncc(Cl)c(-c4c[nH]c5ccccc45)n3)c2)cc1 [THZ1] | inhibits DUX4 expression | inhibits DUX4 expression | inhibits DUX4 expression | 
2 | NC(=O)c1ccc(N(C(N)=O)c2c(F)cccc2F)nc1-c1ccc(F)cc1F [VX-702] |  |  |  | p38α14X selective over p38β
3 | O=c1ncn2nc(Sc3ccc(F)cc3F)ccc2c1-c1c(Cl)cccc1Cl [VX-745] |  |  |  | p38α22X selective over p38β
